Measured values taken from US20240033237A1, “USE OF A-KETOGLUTARATE IN MANUFACTURE OF MEDICAMENT” (TONGJI UNIVERSITY, priority 2019, published 2024).

Tested on: chondrocytes
Experiment: Amino acid content in chondrocytes upon IL-1β stimulation, LC-MS
Assay type: cell-based, mouse
Settings: IL-1β treatment for 36 h, untreated 8740.24±584.31
Protocol: Mouse chondrocytes were obtained from 7-day-old C57BL/6 mice (Shanghai Slac laboratory animal Co., Ltd.), and the procedure was as follows: under aseptic surgical conditions, bilateral knee cartilages of C57 mice were carefully stripped and digested with 0.2% neutral collagenase (Serva, Germany) for 8 h; cell precipitates were obtained by centrifugation, and the cells were resuspended in modified Eagle medium (DMEM) (Gibco, USA) containing 10% FBS, inoculated in culture dishes, and cultured with high-sugar DMEM medium (containing 10% FBS, 100 U/mL penicillin and 100 mg/L streptomycin) at 37° C. in a 5% CO2 constant temperature incubator. The medium was changed for the first time at 48 h. […] The cells were collected by centrifugation and resuspended, and the concentration was adjusted for inoculation in culture dishes. The cells were subcultured by the above method, and the obtained cells were labeled as P1, P2, P3 generations, etc. […]
After being treated with IL-1β for 36 h, the chondrocytes were scraped off, and the changes of amino acid content in the chondrocytes were detected by LC-MS.

IL-1β: interleukin-1β used to stimulate chondrocytes
Gln content in chondrocytes: 330±150.32 ng/10^7
